In brackets after ≈: the same amount, converted by molar mass. One block for each compound: values may come before it.
Assays:
[1] = tested on: Candida albicans KE-2; experiment: Inhibition test against the formation of the pseudohyphae of Candida albicans; format: cell-based; conditions: KE2; Candida albicans KE-2, 1 x 10^6 cells/ml; Eagle's MEM with 20 % bovine serum; 37°C, 18 hours; two-fold dilution; read-out: Inhibitory Concentration against Pseudohyphae Formation
Procedure: [Inhibition test against the formation of the pseudohyphae of Candida albicans] To an Eagle's MEM medium (Nissan 2; Nissui Pharmaceutical Co., Ltd.) was added 20 % bovine serum, onto which yeast cells of Candida albicans KE-2 were inoculated so that the terminal inoculum size would amount to 1 x 10^6 cells/ml. Then, a test compound was added to the medium by a two-fold dilution method, and cultivation was performed at 37°C for 18 hours. After termination of the cultivation, the cells of serial dilution on each medium were smeared and fixed on an object glass, then stained by the Giemsa's staining method, and the occurrence of the pseudohyphae was observed by microscopy. Minimum concentration for inhibiting the formation of the pseudohyphae was regarded as Inhibitory Concentration against Pseudohyphae Formation.

[2] = tested on: Trichophyton asteroides; experiment: in vitro antifungal test, minimum inhibitory concentration (MIC); format: cell-based; conditions: Sabouraud's dextrose broth
From the text: Sabouraud's dextrose broth was used as a culture medium.

[3] = tested on: cucumber downy mildew (Pseudoperonospora cubensis); experiment: Control of cucumber downy mildew; format: in vivo; conditions: cucumber leaf sprayed at 125 ppm, 10 days
Procedure: The first leaf of young cucumber plant (cultivar : Matsukaze) grown in pot was sprayed with 3 ml of preparation containing a test compound at a concentration of 125 ppm. Five small droplets of suspension of sporangia of cucumber downy mildew (Pseudoperonospora cubensis) were applied to the leaf surface and the pot was kept at 22 ± 2°C under humid condition for 10 days. Then disease degree of downy mildew symptom developed was determined by the following method : [formula] • where, a : Number of inoculations showing typical disease symptom • b : Number of inoculations at which chlorosis was developed • c : Number of inoculations at which chlorosis was slightly developed • d : Number of inoculations at which no disease symptoms were developed Disease degree in Disease degree in [formula]

[4] = tested on: cucurbit powdery mildew (Sphaerotheca fuliginea); experiment: Control of powdery mildew in cucumber; format: in vivo; parameters: key: O: Disease sign was detected for nearly 100 % area in the inoculated leaf surface; 3: Disease sign was detected for about 50 % area; 5: Disease sign was detected for about 30 % area; 7: Disease sign was detected for about 20 % area; 9: Disease sign was slightly detected; 10: No disease sign was detected; conditions: degree of mildew infection 10 days after inoculation; for Soil application (10 ppm) Prevention: 10 ml at 10 ppm applied to the soil before inoculation; for Foliar spray (125 ppm) Supprension: sprayed at 125 ppm 2 days after inoculation; for Foliar spray (125 ppm) Prevention: sprayed at 125 ppm before inoculation
Procedure: Three ml of preparation containing a test compound at a concentration of 125 ppm was sprayed foliarly to the first leaf of young cucumber plant (cultivar: Matsukaze) which was grown in 9 cm pot in a glasshouse. Similar preparation in 10 ml with the test compound at a concentration of 10 ppm was applied directly to the soil in another pot with cucumber. These plants were inoculated subsequently with conidia suspension of cucurbit powdery mildew (Sphaerotheca fuliginea) and kept in a glasshouse at the temperature of 25 ± 2 °C. Yet in another experiment cucumber in pot was inoculated first with conidia of Sphaerotheca fuliginea and after 2 days the test compound was sprayed foliarly as above to examine its suppressive ability against development of the disease. For all these cucumber plants were observed 10 days after each inoculation and degrees of mildew infection were given as follows: • O : Disease sign was detected for nearly 100 % area in the inoculated leaf surface • 3 : Disease sign was detected for about 50 % area • 5 : Disease sign was detected for about 30 % area • 7 : Disease sign was detected for about 20 % area • 9 : Disease sign was slightly detected • 10: No disease sign was detected

[5] = tested on: dumping-off pathogen, Rhizoctonia solani; experiment: Control of dumping-off in cucumber seedlings; format: in vivo; conditions: cucumber seeds, 14 days after sowing; for Disease degree (%): 30 ml at 500 ppm applied to the soil, 30 ± 2 °C; for Control (%): 500 ppm applied to the soil, calculated from disease degree
Procedure: Twenty seeds of cucumber (cultivar: Matsukaze) were sown in 150 g of sterilized soil in 9 cm pot. The soil surface was covered with 15 g of inoculum which contained a dumping-off pathogen, Rhizoctonia solani precultured in a mixture of wheat bran and sterilized soil. Then 30 ml of preparation with a test compound at a concentration of 500 ppm was applied to the soil and the pot was kept at 30 ± 2 °C in a humid chamber.

[6] = tested on: Candida albicans KE-2; experiment: Therapeutic effect against experimental candidiasis in mice; format: in vivo; conditions: female Jcl-ICR mice infected intravenously; 50 mg/kg orally twice a day for 5 days; survival at the 15th day
Procedure: [Therapeutic effect against experimental candidiasis in mice] Candida albicans KE-2 was cultivated in a Sabouraud's dextrose agar at 28°C for 48 hours, and the resulting culture was suspended in the Sabouraud's dextrose broth. The cells (5 x 105) were administered intravenously at the tail of female Jcl-ICR mice (4 weeks age, body weight 18 - 20 g). The test compound suspended in 2 % gum-arabic was orally administered at a dose of 50 mg/kg twice a day for 5 days: on the first day, the test compound was administered twice i.e. immediately after the infection and 2 hours later; on the second day or later, 24 hours after the administration of the previous day respectively. An infected group to which no test compound was administered was regarded as a control group. Eight mice were employed per group in the control group and the test groups to which the test compound was administered. Therapeutic effect was evaluated on the survival rate at the 15th day since the day of infection; the result is shown below.

[7] = tested on: sheath blight fungus (Rhizoctonia solani); experiment: Control of sheath blight in rice; format: in vivo; conditions: rice sprayed foliarly at 500 ppm, 5 days
Procedure: Rice (cultivar: Aichi-asahi) was grown in pots in a glasshouse for about 3 months and the plant in each pot was sprayed foliarly with 5 ml of preparation containing a test compound at a concentration of 500 ppm. Then the rice was inoculated at the stem near the soil with sheath blight fungus (Rhizoctonia solani) which was previously cultured in rice husks. The inoculated plant was placed in a humid (r.h. 97 %) chamber at 28°C for 5 days.

MIC [2]: 0.1 µg/mL (≈ 0.292 µM)
Compound: CCCCC(=O)C(O)(Cn1cncn1)c1ccc(Cl)cc1Cl (centres unmarked) [compound 23]

MIC [2]: 0.1 µg/mL (≈ 0.232 µM)
Compound: O=C(c1ccc(Cl)cc1Cl)C(O)(Cn1cncn1)c1ccc(Cl)cc1Cl (centres unmarked) [compound 6]
minimal effective concentration [1]: 0.16 µg/mL

MIC [2]: 0.1 µg/mL (≈ 0.275 µM)
Compound: OC(c1ccccc1Cl)C(O)(Cn1cncn1)c1ccccc1Cl (centres unmarked) [compound 69]
minimal effective concentration [1]: 0.08 µg/mL

MIC [2]: 1.56 µg/mL (≈ 4.71 µM)
Compound: OC(c1ccc(F)cc1)C(O)(Cn1cncn1)c1ccc(F)cc1 (centres unmarked) [compound 71]
Soil application (10 ppm) Prevention [4]: 10
Foliar spray (125 ppm) Supprension [4]: 10
Foliar spray (125 ppm) Prevention [4]: 10

MIC [2]: 1.6 µg/mL (≈ 5.41 µM)
Compound: CCCC(O)C(O)(Cn1cncn1)c1ccc(Cl)cc1 (centres unmarked) [compound 80]

MIC [2]: 0.1 µg/mL (≈ 0.232 µM)
Compound: O=C(c1ccc(Cl)cc1Cl)C(O)(Cn1ccnc1)c1ccc(Cl)cc1Cl (centres unmarked) [Compound No. 1, 2',4'-dichloro-2-(2,4-dichlorophenyl)-2-hydroxy-3-(1H-imidazol-1-yl)propiophenone]
Foliar spray (125 ppm) Supprension [4]: 10
Foliar spray (125 ppm) Prevention [4]: 10

MIC [2]: 0.1 µg/mL (≈ 0.231 µM)
Compound: OC(c1ccc(Cl)cc1Cl)C(O)(Cn1cncn1)c1ccc(Cl)cc1Cl (centres unmarked) [compound 63, 1,2-bis(2,4-dichlorophenyl)-3-(1H-1,2,4-triazol-1-yl)-propylene glyco]
minimal effective concentration [1]: 0.08 µg/mL
Survival Rate [6]: 75%

MIC [2]: 0.8 µg/mL (≈ 2.72 µM)
Compound: CCCC(=O)C(O)(Cn1cncn1)c1ccccc1Cl (centres unmarked) [compound 32]
Soil application (10 ppm) Prevention [4]: 10
Foliar spray (125 ppm) Supprension [4]: 10
Foliar spray (125 ppm) Prevention [4]: 10
minimal effective concentration [1]: 0.04 µg/mL

More lines, now with the values behind:

Compound: CCC(C)C(=O)C(O)(Cn1cncn1)c1ccc(Cl)cc1Cl (centres unmarked) [compound 28]
minimal effective concentration [1]: 0.02 µg/mL

Compound: O=C(c1cccc(Cl)c1)C(O)(Cn1cncn1)c1cccc(Cl)c1 (centres unmarked) [compound 11]
MIC [2]: 3.13 µg/mL (≈ 8.64 µM)

Compound: O=C(c1ccccc1F)C(O)(Cn1cncn1)c1ccc(Cl)cc1Cl (centres unmarked) [compound 46]
Disease degree (%) ([3]; 22 ± 2°C, humid): 20%
Control (%) ([3]; calculated from disease degree): 80%
Soil application (10 ppm) Prevention [4]: 5 (Disease sign was detected for about 30 % area)
Foliar spray (125 ppm) Supprension [4]: 10
Foliar spray (125 ppm) Prevention [4]: 10
Disease degree (%) [5]: 0%
Control (%) [5]: 100%
Survival Rate [6]: 87.5%

Compound: O=C(c1ccc(F)cc1)C(O)(Cn1cncn1)c1ccc(Cl)cc1Cl (centres unmarked) [compound 8]
Disease degree (%) [5]: 5%
Control (%) [5]: 95%
minimal effective concentration [1]: 1.25 µg/mL

Compound: O=C(c1ccc(F)cc1)C(O)(Cn1cncn1)c1ccccc1Cl (centres unmarked) [compound 19]
Survival Rate [6]: 100%

Compound: OC(c1ccc(F)cc1)C(O)(Cn1cncn1)c1ccc(Cl)cc1Cl (centres unmarked) [compound 67]
MIC [2]: 0.1 µg/mL (≈ 0.262 µM)
minimal effective concentration [1]: 0.08 µg/mL
Survival Rate [6]: 100%

Compound: O=C(c1ccccc1Cl)C(O)(Cn1cncn1)c1ccccc1Cl (centres unmarked) [compound 10]
Disease degree (%) [5]: 8%
Control (%) [5]: 92%
MIC [2]: 0.1 µg/mL (≈ 0.276 µM)
minimal effective concentration [1]: 0.08 µg/mL

Compound: OC(c1ccc(Cl)cc1Cl)C(O)(Cn1cncn1)c1ccc(F)cc1 (centres unmarked) [compound 78]
minimal effective concentration [1]: 0.31 µg/mL

Compound: COc1ccc(C(=O)C(O)(Cn2cncn2)c2ccc(OC)cc2)cc1 (centres unmarked) [compound 7]
MIC [2]: 12.5 µg/mL (≈ 35.4 µM)

Compound: Cc1ccc(C(=O)C(O)(Cn2cncn2)c2ccc(C)cc2)cc1 (centres unmarked) [compound 9]
MIC [2]: 1.56 µg/mL (≈ 4.85 µM)

Compound: CCCC(=O)C(O)(Cn1cncn1)c1ccc(Cl)cc1Cl (centres unmarked) [compound 25]
Growth of mycelia (mm) ([7]; 28°C, r.h. 97 %): 20 mm
Suppression (%) ([7]; calculated from growth of mycelia): 90%
Soil application (10 ppm) Prevention [4]: 10
Foliar spray (125 ppm) Supprension [4]: 10
Foliar spray (125 ppm) Prevention [4]: 10
MIC [2]: 0.1 µg/mL (≈ 0.305 µM)
minimal effective concentration [1]: 0.04 µg/mL

Compound: CCC(C)C(=O)C(O)(Cn1cncn1)c1ccc(Cl)cc1 (centres unmarked) [compound 34]
MIC [2]: 0.1 µg/mL (≈ 0.325 µM)

— patent EP0117578A2, “Azole-substituted alcohol derivatives” (SHIONOGI & CO., LTD., priority 1983, dated 1984)
